Positions count from the first letter of the chain named.
Experiments:
[1] = biological target: T1, PhnA (phosphonoacetate hydrolase; PhnA-N-His) (Sinorhizobium meliloti, UniProt Q92UV8); settings: formed by turnover of phosphonoacetate; bidentate to metal M1
T1 sequence (Q92UV8 1-424): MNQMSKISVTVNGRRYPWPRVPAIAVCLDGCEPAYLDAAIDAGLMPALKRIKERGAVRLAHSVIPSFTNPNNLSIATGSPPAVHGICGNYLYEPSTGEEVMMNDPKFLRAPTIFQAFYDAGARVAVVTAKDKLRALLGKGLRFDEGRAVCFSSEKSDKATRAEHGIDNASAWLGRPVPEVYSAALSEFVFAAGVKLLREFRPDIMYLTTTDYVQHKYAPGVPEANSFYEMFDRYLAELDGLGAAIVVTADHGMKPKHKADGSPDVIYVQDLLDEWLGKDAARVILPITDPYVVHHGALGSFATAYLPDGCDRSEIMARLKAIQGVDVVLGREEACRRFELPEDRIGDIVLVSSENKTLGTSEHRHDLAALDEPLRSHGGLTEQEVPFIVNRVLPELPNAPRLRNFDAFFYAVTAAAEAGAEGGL

[2] = biological target: T2, PhnA (phosphonoacetate hydrolase; PhnA-N-His) (Sinorhizobium meliloti, UniProt Q92UV8, T68A); test: co-crystal structure, […] Å; assay type: binding; settings: with 2 mM ZnCl2; active site, phosphonate at M2, carboxylate at M1
T2 sequence (Q92UV8 1-424 T68A): T1 sequence (Q92UV8 1-424) with T68A

[3] = biological target: T1, PhnA (phosphonoacetate hydrolase; PhnA-N-His); test: co-crystal structure, […] Å; assay type: binding; settings: covalent; transition state mimic on Thr68, di-zinc active site

With CC(=O)O [acetate] the “crystal structure, 2.0 Å, crystals soaked with phosphonoacetate” value [1] was “electron density consistent with an acetate ion bound to the M1 metal ion”.

In the case of O=C(O)CP(=O)(O)O [phosphonoacetate], the “co-crystal structure, 2.0 Å” value [2] is reported as “Crystals for the T68A mutant showed robust density for PnA in the active site”.

With [O]=[V]([OH])([OH])[OH] [vanadate] the “co-crystal structure, 1.8 Å (Table 1)” value [3] was “we have determined the co-crystal structure of a covalent complex with orthovanadate”.

Reference: article PMC4321816 (Chemistry & biology, 2011)
